Results published in US7700560B2 (University of Maryland, Baltimore County, priority 2003, dated 2010).
Where two headings read alike, the source gives them in different places.

Legend:
human GlxI [1] = target: T1, human GlxI (Homo sapiens, UniProt Q04760); test: Competitive inhibition constants (Kis) with human GlxI; type: biochemical; settings: for binds more tightly to hGlxI than to yGlxI: ratio of Ki yGlxI / hGlxI
T1 construct: hGlxI from human erythrocytes; from tissue; host or cells: human erythrocytes
T1 sequence (Q04760 2-184 limits assumed): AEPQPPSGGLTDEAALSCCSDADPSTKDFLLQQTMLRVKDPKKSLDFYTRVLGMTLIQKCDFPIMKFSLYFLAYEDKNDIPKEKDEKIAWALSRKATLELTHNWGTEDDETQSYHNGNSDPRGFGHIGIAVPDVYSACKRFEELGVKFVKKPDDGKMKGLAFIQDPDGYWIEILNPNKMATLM
Procedure: (§1) Competitive inhibition constants (Kis) of bivalent and monovalent enzyme inhibitors with human GlxI or yeast GlxI (yGlxI) were obtained from the change in the initial rates of product formation at various concentrations of the substrate in the presence or absence of the inhibitor. To a 1 ml cuvette containing 50 mM sodium phosphate buffer, pH 7.0, 0.5 mM EDTA, 25° C. and different concentrations of thiohemiacetal substrates with fixed concentrations of inhibitor was added approximately 0.02 U of enzyme. The initial rates of product formation were followed on the basis of the increase in absorbancy at 240 nm. Inhibition constants were obtained by fitting the initial rate data to the equation for competitive inhibition.

yeast GlxI = target: T2, yeast GlxI (Saccharomyces cerevisiae, UniProt P50107); test: Competitive inhibition constants (Kis) with yeast GlxI; type: biochemical; settings: sodium phosphate buffer, 50 mM, pH 7, 25° C.; mean (±S.D.) duplicate; read-out: Ki, yGlxI
T2 sequence (P50107 1-326): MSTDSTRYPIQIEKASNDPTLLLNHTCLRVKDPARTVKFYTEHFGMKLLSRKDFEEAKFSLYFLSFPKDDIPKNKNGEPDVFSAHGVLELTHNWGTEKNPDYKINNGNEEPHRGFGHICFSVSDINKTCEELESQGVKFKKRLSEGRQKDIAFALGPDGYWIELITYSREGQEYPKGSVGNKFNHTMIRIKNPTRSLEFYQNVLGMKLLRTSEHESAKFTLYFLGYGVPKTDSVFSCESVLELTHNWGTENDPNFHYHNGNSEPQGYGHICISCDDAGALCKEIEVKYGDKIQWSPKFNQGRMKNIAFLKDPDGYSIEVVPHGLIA
Procedure: as §1

bovine liver GlxII [2] = target: T3, bovine liver GlxII (Bos taurus, UniProt Q3B7M2); test: Competitive inhibition constants (Kis) with bovine liver GlxII; type: biochemical; settings: sodium phosphate buffer, 50 mM, pH 7, 25° C.; mean (±S.D.) duplicate; read-out: Ki, bGlxII
T3 construct: yeast GlxI (yGlxI) and bovine liver GlxII (bGlXII); from tissue; host or cells: bovine liver

human GlxI [3] = target: T1, human GlxI; test: Irreversible inactivation kinetics of human GlxI; type: biochemical
Procedure: Incubation mixtures of enzyme (10 units/ml) and known concentrations of inactivator in phosphate buffer were separately incubated in plastic bullet tubes maintained at 25° C. in a water bath. Aliquots were removed, diluted into a quartz cuvette containing one ml GSH-methylglyoxal-thiohemiacetal, and the rate of product formation (ΔOD (240)) monitored as a function of time. From the initial rate of product formation, the activity of the enzyme was calculated. The slope of a plot of in (fraction of enzyme activity remaining) versus time gives the apparent first-order rate constant (kinact) for inactivation of hGlxI. A plot of kinact versus inactivator concentration (FIG. 7.) gives the dissociation constant (Kd and the maximum value of kinact).

[4] = test system: murine leukemia L1210 cells; settings: cited from earlier work; for IC50: after 72 hours of incubation, diethyl ester prodrugs, read-out: IC50, growth of L1210 cells
[5] = test system: DMS114 lung and DU145 prostate xenografts; settings: cited from earlier work
GSH peroxidase = test: Inhibition of GSH peroxidase; type: biochemical; settings: up to an inhibitor concentration of 20 μM
[6] = target: T4, human placental GSH transferase (Homo sapiens, UniProt P09211); test: Inhibition of human placental GSH transferase; type: biochemical; settings: up to an inhibitor concentration of 20 μM
T4 construct: human placental GSH transferase; from tissue; host or cells: human placenta
T4 sequence (P09211 2-210 limits assumed): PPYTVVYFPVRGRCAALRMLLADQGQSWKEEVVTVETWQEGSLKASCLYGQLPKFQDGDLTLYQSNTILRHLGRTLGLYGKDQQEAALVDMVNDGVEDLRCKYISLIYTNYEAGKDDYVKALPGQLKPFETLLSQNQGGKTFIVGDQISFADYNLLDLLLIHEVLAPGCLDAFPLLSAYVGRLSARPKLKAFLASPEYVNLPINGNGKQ

bovine liver GlxII [7] = target: T3, bovine liver GlxII; settings: cited from earlier work
[8] = test system: murine melanotic melanoma; settings: cited from earlier work; for efficacy relative to positive control adriamycin: at much higher dosages than adriamycin
[9] = test system: human prostate PC3 tumors; settings: cited from earlier work
human colon HT29 tumors = settings: cited from earlier work
[10] = sodium phosphate buffer, 50 mM, pH 7, 25° C., mean (±S.D.) triplicate, read-out: Ki, hGlxI
[11] = glycerol (20%) in sodium phosphate buffer, pH 7, 25° C.

O=C(O)CNC(=O)C(CSC(=O)N(O)c1ccc(Cl)cc1)NC(=O)CCC(NC(=O)CCNC(=O)CCNC(=O)CCNC(=O)CCNC(=O)CCNC(=O)CCCCCCC(=O)NCCC(=O)NCCC(=O)NCCC(=O)NCCC(=O)NCCC(=O)NC(CCC(=O)NC(CSC(=O)N(O)c1ccc(Cl)cc1)C(=O)NCC(=O)O)C(=O)O)C(=O)O (stereo not drawn) [[CHG(β-Ala)n]2sub., n = 5, [CHG (β-ala)5]2suberate diamide]
Ki (human GlxI [1]; [10]): 7.5 ± 0.5 nM

O=C(O)CNC(=O)[C@H](CSC(=O)N(O)c1ccc(Cl)cc1)NC(=O)CC[C@H](NC(=O)CCNC(=O)CCCCCCC(=O)NCCC(=O)N[C@@H](CCC(=O)N[C@@H](CSC(=O)N(O)c1ccc(Cl)cc1)C(=O)NCC(=O)O)C(=O)O)C(=O)O [[CHG(β-Ala)n]2sub., n = 1, [CHG(β-ala)]2Suberate Diamide]
Ki (human GlxI [1]; [10]): 70.1 ± 1.3 nM | Ki (yeast GlxI): 3000 ± 200 nM | Ki (bovine liver GlxII [2]): 35 ± 4 nM

NCCC(=O)NC(CCC(=O)NC(CSC(=O)N(O)c1ccc(Cl)cc1)C(=O)NCC(=O)O)C(=O)O (stereo not drawn) [CHG(β-Ala)n, n = 1]
Ki (human GlxI [1]; [10]): 330 ± 6 nM | Ki (bovine liver GlxII [2]): 1200 ± 12 nM

N-(tri-beta-ala hydroxyethylamide ethylenediamine bis(hexanedioic acid O-carbonylethyl)S—(N-p-bromophenyl-N-hydroxy-carbamoyl)glutathione [polyBHG2-54]
Ki (human GlxI [1]; competitive inhibition, read-out: Ki values, human GlxI): 0.3 nM

N[C@@H](CCC(=O)N[C@@H](CSCC(=O)OCCCCOC(=O)CBr)C(=O)NCC(=O)O)C(=O)O
irreversible inactivation of human GlxI (human GlxI [3]; [11]): irreversibly inactivate human GlxI | kinact (human GlxI [3]; [11]): 0.000267 s⁻¹ | Kd (human GlxI [3]; glycerol (20%) in sodium phosphate buffer, pH 7, 25° C., fit of kobsd vs concentration, read-out: Kd (dissociation constant) for inactivation of human GlxI): 177000 ± 43000 nM

O=C(O)CNC(=O)C(CSC(=O)N(O)c1ccc(Cl)cc1)NC(=O)CCC(NC(=O)CCNC(=O)CCNC(=O)CCNC(=O)CCNC(=O)CCCCCCC(=O)NCCC(=O)NCCC(=O)NCCC(=O)NCCC(=O)NC(CCC(=O)NC(CSC(=O)N(O)c1ccc(Cl)cc1)C(=O)NCC(=O)O)C(=O)O)C(=O)O (stereo not drawn) [[CHG(β-Ala)n]2sub., n = 4, [CHG (β-ala)4]2suberate diamide]
Ki (human GlxI [1]; [10]): 59.6 ± 2 nM | Ki (yeast GlxI): 9000 ± 300 nM

[CHG (β-ala)7]2suberate diamide [[CHG(β-Ala)n]2sub., n = 7]
Ki (human GlxI [1]; [10]): 0.97 ± 0.02 nM | Ki (yeast GlxI): 4100 ± 500 nM | Ki (bovine liver GlxII [2]): 79 ± 8 nM

CCOC(=O)CNC(=O)C(CSC(=O)N(O)c1ccc(Br)cc1)NC(=O)CCC(N)C(=O)OCC (stereo not drawn) [BHG(Et)2]
IC50 [4]: 16000 nM

CCOC(=O)CNC(=O)C(CSC(=O)N(O)c1ccccc1)NC(=O)CCC(N)C(=O)OCC (stereo not drawn) [PHG(Et)2]
IC50 [4]: 63000 nM

N[C@@H](CCC(=O)N[C@@H](CSCc1ccc(Br)cc1)C(=O)NCC(=O)O)C(=O)O [(S-p-bromobenzyl)glutathione (BBG), (S-p-bromobenzyl)glutathione]
efficacy against human lung tumors (DMS114) in mice ([5]; dosages of 100 mg/kg): effective | adverse side effects ([5]; during the 21 days of administration, 100 mg/kg): no evidence of adverse side effects

O=C(O)CNC(=O)[C@H](CSC(=O)N(O)c1ccc(Cl)cc1)NC(=O)CC[C@H](NC(=O)CCNC(=O)CCNC(=O)CCNC(=O)CCNC(=O)CCNC(=O)CCNC(=O)CCCCCCC(=O)NCCC(=O)NCCC(=O)NCCC(=O)NCCC(=O)NCCC(=O)NCCC(=O)N[C@@H](CCC(=O)N[C@@H](CSC(=O)N(O)c1ccc(Cl)cc1)C(=O)NCC(=O)O)C(=O)O)C(=O)O [[CHG(β-Ala)n]2sub., n = 6, [CHG (β-ala)6]2suberate diamide]
mode of inhibition of hGlxI (human GlxI [1]; hGlxI from human erythrocytes, reciprocal plot FIG. 4): competitive inhibitor | binding selectivity hGlxI versus bGlxII (human GlxI [1]; ratio of Ki bGlxII / hGlxI): 148 fold | binds more tightly to hGlxI than to yGlxI (human GlxI [1]): about 7500 fold | Ki (human GlxI [1]; [10]): 0.96 ± 0.06 nM | Ki (yeast GlxI): 7200 ± 100 nM | Ki (bovine liver GlxII [2]): 142 ± 1 nM | inhibitory activity on GSH peroxidase (GSH peroxidase): no inhibitory activity | inhibitory activity on human placental GSH transferase [6]: no inhibitory activity

N[C@@H](CCC(=O)N[C@@H](CSC(=O)N(O)c1ccc(Cl)cc1)C(=O)NCC(=O)O)C(=O)O [CHG, S—(N-p-chlorophenyl-N-hydroxycarbamoyl)glutathione, reference compound]
binds more tightly to hGlxI than to yGlxI (human GlxI [1]): 78 fold | protection of the enzyme from inactivation by BPG/BBG (human GlxI [3]; reversible inhibitor present): protects the enzyme from inactivation | substrate for bovine liver GlxII (bovine liver GlxII [7]): substrates for bovine liver GlxII

NC(CCC(=O)NC(CSC(=O)N(O)c1ccc(Cl)cc1)C(=O)NCC(=O)OC1CCCC1)C(=O)OC1CCCC1 (stereo not drawn) [CHG(cyclopentyl)2]
efficacy relative to positive control adriamycin [8]: as effective as the positive control adriamycin

CN(O)C(=O)SC[C@H](NC(=O)CC[C@H](N)C(=O)O)C(=O)NCC(=O)O [S—(N-methyl-N-hydroxycarbamoyl)glutathione]
substrate for bovine liver GlxII (bovine liver GlxII [7]): substrates for bovine liver GlxII

O=C(O)CNC(=O)C(CSC(=O)N(O)c1ccc(Cl)cc1)NC(=O)CCC(NC(=O)CCNC(=O)CCNC(=O)CCNC(=O)CCCCCCC(=O)NCCC(=O)NCCC(=O)NCCC(=O)NC(CCC(=O)NC(CSC(=O)N(O)c1ccc(Cl)cc1)C(=O)NCC(=O)O)C(=O)O)C(=O)O (stereo not drawn) [[CHG(β-Ala)n]2sub., n = 3, [CHG(β-ala)3]2suberate diamide]
Ki (human GlxI [1]; [10]): 84.1 ± 2.4 nM

CCOC(=O)CNC(=O)[C@H](CSC(=O)N(O)c1ccc(Cl)cc1)NC(=O)CC[C@H](N)C(=O)OCC [CHG(Et)2]
toxicity to L1210 cells versus normal splenic lymphocytes in culture ([4]; Kavarana et al 1999): significantly more toxic to murine leukemia L1210 cells than to normal splenic lymphocytes | IC50 [4]: 5000 nM | haemopoetic toxicity ([9]; PC3 tumor-bearing mice): without the cisplatin-associated haemopoetic toxicity | growth of PC3 tumors ([9]; bolus i.v. administration): inhibited the growth | potency relative to positive control cisplatin ([9]; bolus i.v. administration): as good as the positive control cisplatin | effect on PC3 tumors ([9]; continuous infusion over 12 days): no effect was observed | efficacy relative to positive control adriamycin [8]: as effective as the positive control adriamycin | accumulation of drug in melanoma ([8]; following i.v. bolus administration): significant accumulation of drug in melanoma | efficacy against HT29 tumors (human colon HT29 tumors; bolus administration): efficacy was not observed | potency relative to positive control vincristin (human colon HT29 tumors; continuous i.v. infusion): as good as the positive control vincristin | side-effects (human colon HT29 tumors; continuous i.v. infusion): without any detectable side-effects

O=C(O)CNC(=O)C(CSC(=O)N(O)c1ccc(Cl)cc1)NC(=O)CCC(NC(=O)CCNC(=O)CCNC(=O)CCCCCCC(=O)NCCC(=O)NCCC(=O)NC(CCC(=O)NC(CSC(=O)N(O)c1ccc(Cl)cc1)C(=O)NCC(=O)O)C(=O)O)C(=O)O (stereo not drawn) [[CHG(β-Ala)n]2sub., n = 2, [CHG(β-ala)2]2suberate diamide]
Ki (human GlxI [1]; [10]): 75.9 ± 7.4 nM | Ki (bovine liver GlxII [2]): 50 ± 5 nM

N[C@@H](CCC(=O)N[C@@H](CSC(=O)N(O)c1ccccc1)C(=O)NCC(=O)O)C(=O)O [S—(N-phenyl-N-hydroxycarbamoyl)glutathione]
substrate for bovine liver GlxII (bovine liver GlxII [7]): substrates for bovine liver GlxII

N[C@@H](CCC(=O)N[C@@H](CSC(=O)N(O)c1ccc(Br)cc1)C(=O)NCC(=O)O)C(=O)O [BHG, S—(N-p-bromophenyl-N-hydroxy-carbamoyl)glutathione]
substrate for bovine liver GlxII (bovine liver GlxII [7]): substrates for bovine liver GlxII
